# Assay results as given in patent US8247211B2, “Glycopeptide antibiotics” (American Cyanamid Company, priority 2001, dated 2012).
# Experiments:
# Assay in all cases: In vitro antibacterial evaluation: minimum inhibitory concentration (MIC), broth dilution method
# Type in all cases: cell-based
# [1] = tested on: Enterococcus sp.; conditions: broth dilution, 5×10^5 CFU/mL, 18 hours at 35° C.
# Experimental: (§1) The minimum inhibitory concentration (MIC), the lowest concentration of the antibiotic which inhibits growth of the test organism, is determined by the broth dilution method using Muller-Hinton II […] (Baltimore Biological Laboratories) following the recommendations of the National Committee for Clinical Laboratory Standards [Methods for dilution antimicrobial susceptibility tests for bacteria that grow aerobically, approved standard M7-A2, National Committee for Clinical Laboratory Standards, Villanova, Pa].
# (§2) An inoculum level of 5×10^5 CFU/mL, and a range of antibiotic concentrations (64-0.06 μg/mL) is used. […] The test organisms include a spectrum of Gram-positive bacteria comprised of Staphylococcus sp., Streptococcus sp. and Enterococcus sp. These organisms include recent clinical isolates that are resistant to methicillin, penicillin and/or vancomycin.
# [2] = tested on: Escherichia coli; conditions: 5×10^5 CFU/mL, 18 hours at 35° C.
# Experimental: as §1, §2
# [3] = tested on: Staphylococcus sp.; conditions: for MIC Staphylococcus aureus (ATCC 29213): strain ATCC 29213; for MIC Staphylococcus aureus (GC 1131): strain GC 1131; for MIC Staphylococcus aureus (GC 3051): strain GC 3051; for MIC Staphylococcus aureus (GC 3053): strain GC 3053; for MIC Staphylococcus aureus (GC 4541): strain GC 4541; for MIC Staphylococcus aureus (GC 4542): strain GC 4542; for MIC Staphylococcus aureus (GC 4544): strain GC 4544; for MIC Staphylococcus aureus (GC 4545): strain GC 4545
# Experimental: as §1, §2
# [4] = tested on: Streptococcus sp.; conditions: broth dilution, 5×10^5 CFU/mL, 18 hours at 35° C.
# Experimental: as §1, §2
# [5] = broth dilution, 5×10^5 CFU/mL, 18 hours at 35° C.
# [6] = broth dilution, 18 hours at 35° C.
compound,measurement,setting,value
"CC(C)=CCCC(C)C1OCC2OC(OC3C(CO)OC(Oc4ccc(CC5NC(=O)C(C(C)c6ccccc6)NC(=O)CNC(=O)C(CO)NC(=O)C(C(O)C6CNC(=N)N6C6OC(CO)C(O)C(O)C6O)NC(=O)C(C(O)C6CNC(=N)N6)NC5=O)cc4)C(O)C3O)C(O)C(O)C2O1 (stereo not drawn) [Example 125, Cyclo[glycyl-β-methylphenylalanyl-O-[4-O-[4,6-O-[2,6-dimethylhept-5-en-1-yidene)hexopyranosyl]hexopyranosyl]tyrosyl-3-(2-iminoimidazolidin-4-yl)seryl-3-(3-hexopyranosyl-2-iminoimidazolidin-4-yl)serylseryl]]",MIC Enterococccus avium (GC 4558),[1],32 µg/mL
same,MIC Enterococccus faecalis (ATCC 29212),[1],32 µg/mL
same,MIC Enterococccus faecalis (GC 2691),[1],32 µg/mL
same,MIC Enterococccus faecalis (GC 3059),[1],32 µg/mL
same,MIC Enterococccus faecalis (GC 4552),[1],32 µg/mL
same,MIC Enterococccus faecalis (GC 4553),[1],32 µg/mL
same,MIC Enterococccus faecalis (GC 4554),[1],32 µg/mL
same,MIC Enterococccus faecalis (GC 6189),[1],32 µg/mL
same,MIC Enterococccus faecium (GC 2243),[1],32 µg/mL
same,MIC Enterococccus faecium (GC 4556),[1],32 µg/mL
same,MIC Enterococccus faecium (GC 4557),[1],16 µg/mL
same,MIC Enterococcus faecalis (GC 2242),[1],32 µg/mL
same,MIC Escherichia coli (ATCC 25922),[2],>64 µg/mL
same,MIC Escherichia coli (GC 4559),[2],>64 µg/mL
same,MIC Escherichia coli (GC 4560),[2],32 µg/mL
same,MIC Coagulase Negative Staphylococcus (GC 4547),[3]; [5],32 µg/mL
same,MIC Coagulase Negative Staphylococcus (GC 4548),[3]; [5],32 µg/mL
same,MIC Coagulase Negative Staphylococcus (GC 4549),[3]; [5],32 µg/mL
same,MIC Coagulase Negative Staphylococcus (GC 4551),[3]; [5],32 µg/mL
same,MIC Coagulase Negative Staphylococcus (GC 6257),[3]; [5],32 µg/mL
same,MIC Staphylococcus aureus-SMITH (GC 4543),[3]; [5],32 µg/mL
same,MIC Staphylococcus haemolyticus (GC 4546),[3]; [5],32 µg/mL
same,MIC Staphylococcus aureus (ATCC 29213),[3],32 µg/mL
same,MIC Staphylococcus aureus (ATCC 29213),[3]; [6],32 µg/mL
same,MIC Staphylococcus aureus (GC 1131),[3],32 µg/mL
same,MIC Staphylococcus aureus (GC 1131),[3]; [6],32 µg/mL
same,MIC Staphylococcus aureus (GC 3051),[3],32 µg/mL
same,MIC Staphylococcus aureus (GC 3051),[3]; [6],32 µg/mL
same,MIC Staphylococcus aureus (GC 3053),[3],32 µg/mL
same,MIC Staphylococcus aureus (GC 3053),[3]; [6],32 µg/mL
same,MIC Staphylococcus aureus (GC 4541),[3],8 µg/mL
same,MIC Staphylococcus aureus (GC 4541),[3]; [6],8 µg/mL
same,MIC Staphylococcus aureus (GC 4542),[3],32 µg/mL
same,MIC Staphylococcus aureus (GC 4542),[3]; [6],32 µg/mL
same,MIC Staphylococcus aureus-SMITH (GC 4543),"[3]; strain GC 4543, broth dilution, 18 hours at 35° C.",32 µg/mL
same,MIC Staphylococcus aureus (GC 4544),[3],32 µg/mL
same,MIC Staphylococcus aureus (GC 4544),[3]; [6],32 µg/mL
same,MIC Staphylococcus aureus (GC 4545),[3],32 µg/mL
same,MIC Staphylococcus aureus (GC 4545),[3]; [6],32 µg/mL
same,MIC Staphylococcus haemolyticus (GC 4546),"[3]; strain GC 4546, broth dilution, 18 hours at 35° C.",32 µg/mL
same,MIC Coagulase Negative Staphylococcus (GC 4547),"[3]; strain GC 4547, broth dilution, 18 hours at 35° C.",32 µg/mL
same,MIC Coagulase Negative Staphylococcus (GC 4548),"[3]; strain GC 4548, broth dilution, 18 hours at 35° C.",32 µg/mL
same,MIC Coagulase Negative Staphylococcus (GC 4549),"[3]; strain GC 4549, broth dilution, 18 hours at 35° C.",32 µg/mL
same,MIC Coagulase Negative Staphylococcus (GC 4551),"[3]; strain GC 4551, broth dilution, 18 hours at 35° C.",32 µg/mL
same,MIC Coagulase Negative Staphylococcus (GC 6257),"[3]; strain GC 6257, broth dilution, 18 hours at 35° C.",32 µg/mL
same,MIC Streptococcus agalactiae (GC 4564),[4],1 µg/mL
same,MIC Streptococcus pneumoniae (GC 1894),[4],0.12 µg/mL
same,MIC Streptococcus pneumoniae (GC 4565),[4],0.25 µg/mL
same,MIC Streptococcus pneumonine (ATCC 6301),[4],0.25 µg/mL
same,MIC Streptococcus pyogenes (GC 4563),[4],0.5 µg/mL
